{"source": "paper PMC4698308", "about": "“A new amino acid substitution (Ala-205-Phe) in acetolactate synthase (ALS) confers broad spectrum resistance to ALS-inhibiting herbicides” (Planta, 2015)", "key": {"[1]": {"tested_on": "ALS in POAAN-R3 and susceptible annual bluegrass plants", "design": "method as in Brosnan et al. [2015]", "conditions": "increasing concentrations from 0 to 100 μM; ref Brosnan et al. [2015]; cited from earlier work"}, "[2]": {"molecular_target": "T1, recombinant Arabidopsis thaliana ALS wild-type enzyme (WT—sensitive) (Arabidopsis thaliana, UniProt P17597)", "T1 construct": "Protein constructs contained an 85 amino acid N-terminal deletion (chloroplast transit peptide); Hexa-histidine tag (N); made in house", "T1 sequence (P17597 86-670)": "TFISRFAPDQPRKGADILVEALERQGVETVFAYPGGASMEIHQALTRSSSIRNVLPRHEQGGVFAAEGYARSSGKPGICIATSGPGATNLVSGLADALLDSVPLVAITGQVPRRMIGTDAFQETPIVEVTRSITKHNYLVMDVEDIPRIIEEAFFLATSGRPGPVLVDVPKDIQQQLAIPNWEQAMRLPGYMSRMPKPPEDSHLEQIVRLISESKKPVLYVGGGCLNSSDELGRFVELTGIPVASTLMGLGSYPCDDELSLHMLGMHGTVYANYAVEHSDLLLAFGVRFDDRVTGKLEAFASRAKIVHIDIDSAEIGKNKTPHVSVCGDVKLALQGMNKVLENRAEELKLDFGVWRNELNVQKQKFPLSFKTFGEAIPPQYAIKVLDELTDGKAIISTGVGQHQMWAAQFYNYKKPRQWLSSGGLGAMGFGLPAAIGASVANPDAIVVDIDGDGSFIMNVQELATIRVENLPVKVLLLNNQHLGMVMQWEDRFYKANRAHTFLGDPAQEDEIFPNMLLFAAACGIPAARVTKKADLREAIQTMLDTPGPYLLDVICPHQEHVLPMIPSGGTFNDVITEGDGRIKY", "experiment": "biochemical", "summary_of_the_method": "(§1)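 His-tagged enzymes lacking the 85-residue N-terminal transit peptide, expressed and purified. Herbicides in DMSO added; reaction 60 min at 30 °C, stopped with H2SO4, acetolactate converted to acetoin at 56 °C for 15 min.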"}, "[3]": {"tested_on": "annual bluegrass (Poa annua L.)", "experiment": "Whole plant non-target site resistance experiment, foramsulfuron vs sulfometuron (control and plant height 28 days after treatment)", "type": "in vivo", "protocol": "A second experiment was conducted to determine if non-target mechanisms could confer resistance to ALS inhibiting herbicides in our annual bluegrass population, POAAN-R3. ALS-resistant (RP1–RP8) and susceptible (S) plants were cultured in plastic conical containers under previously described glasshouse conditions for 28 days before being treated with foramsulfuron (29 g ha^−1) or sulfometuron-methyl (Oust XP; Dupont Professional Products. Wilmington, DE, USA) at 105 g ai ha^−1. Sulfometuron-methyl is an ALS inhibiting herbicide not metabolized by cytochrome P450 monooxygenases; therefore, it can be used to discern if weed populations survive ALS inhibiting herbicide treatment via target- or non-target site based mechanisms (Christopher et al. [1992]). Per label recommendations, sulfometuron-methyl included non-ionic surfactant at 0.25 % v/v. Treatments were mixed in water carrier applied in an enclosed spray chamber, as previously described, on 13 March 2015.\nAnnual bluegrass control was visually assessed on a 0 (i.e., no control) to 100 % (i.e., complete kill) scale relative to the non-treated 28 days after treatment. After all control data had been collected, plant height data were collected using a ruler placed at the soil surface of each plastic conical container and recording the distance to the tip of the bud leaf. Treatments were arranged as a 9 × 3 factorial with nine plant selections (RP1–RP8, S) and three herbicides (foramsulfuron, sulfometuron-methyl, non-treated) in a completely randomized design with four replications and repeated in separate glasshouses during March 2015."}, "[4]": {"tested_on": "recombinant Arabidopsis thaliana ALS variant A205V", "type": "biochemical", "conditions": "IC50 mutant divided by IC50 sensitive ALS; max inhibitor concentration 1.00 × 10^−04 M", "summary_of_the_method": "as §1"}, "[5]": {"tested_on": "recombinant Arabidopsis thaliana ALS variant W574L", "type": "biochemical", "conditions": "IC50 mutant divided by IC50 sensitive ALS; max inhibitor concentration 1.00 × 10^−04 M", "summary_of_the_method": "as §1"}, "[6]": {"tested_on": "recombinant Arabidopsis thaliana ALS variant A205F", "type": "biochemical", "conditions": "IC50 mutant divided by IC50 sensitive ALS; max inhibitor concentration 1.00 × 10^−04 M", "summary_of_the_method": "as §1"}}, "data": [{"smiles": "COc1cc(OC)nc(NC(=O)NS(=O)(=O)c2cc(NC=O)ccc2C(=O)N(C)C)n1", "note": "[Foramsulfuron]", "values": [{"measurement": "differences in the in vitro activity of ALS in POAAN-R3 and susceptible plants", "setting": "[1]", "result": "no differences"}, {"measurement": "IC50", "setting": "[2]", "result": 7.5, "unit": "nM"}, {"measurement": "Annual bluegrass control RP1", "setting": "[3]; RP1, 28 days after treatment, minimum of two tillers, foramsulfuron 29, sulfometuron 105 g ha^−1", "result": 8, "unit": "%"}, {"measurement": "Annual bluegrass height RP1", "setting": "[3]; RP1, plant height 28 days after treatment, foramsulfuron 29, sulfometuron 105 g ha^-1, non-treated 118 mm", "result": 77, "unit": "mm"}, {"measurement": "Annual bluegrass control RP2", "setting": "[3]; RP2, 28 days after treatment, minimum of two tillers, foramsulfuron 29, sulfometuron 105 g ha^−1", "result": 2, "unit": "%"}, {"measurement": "Annual bluegrass height RP2", "setting": "[3]; RP2, plant height 28 days after treatment, foramsulfuron 29, sulfometuron 105 g ha^-1, non-treated 129 mm", "result": 74, "unit": "mm"}, {"measurement": "Annual bluegrass control RP3", "setting": "[3]; RP3, 28 days after treatment, minimum of two tillers, foramsulfuron 29, sulfometuron 105 g ha^−1", "result": 5, "unit": "%"}, {"measurement": "Annual bluegrass height RP3", "setting": "[3]; RP3, plant height 28 days after treatment, foramsulfuron 29, sulfometuron 105 g ha^-1, non-treated 173 mm", "result": 100, "unit": "mm"}, {"measurement": "Annual bluegrass control RP4", "setting": "[3]; RP4, 28 days after treatment, minimum of two tillers, foramsulfuron 29, sulfometuron 105 g ha^−1", "result": 11, "unit": "%"}, {"measurement": "Annual bluegrass height RP4", "setting": "[3]; RP4, plant height 28 days after treatment, foramsulfuron 29, sulfometuron 105 g ha^-1, non-treated 140 mm", "result": 85, "unit": "mm"}, {"measurement": "Annual bluegrass control RP5", "setting": "[3]; RP5, 28 days after treatment, minimum of two tillers, foramsulfuron 29, sulfometuron 105 g ha^−1", "result": 8, "unit": "%"}, {"measurement": "Annual bluegrass height RP5", "setting": "[3]; RP5, plant height 28 days after treatment, foramsulfuron 29, sulfometuron 105 g ha^-1, non-treated 114 mm", "result": 75, "unit": "mm"}, {"measurement": "Annual bluegrass control RP6", "setting": "[3]; RP6, 28 days after treatment, minimum of two tillers, foramsulfuron 29, sulfometuron 105 g ha^−1", "result": 46, "unit": "%"}, {"measurement": "Annual bluegrass height RP6", "setting": "[3]; RP6, plant height 28 days after treatment, foramsulfuron 29, sulfometuron 105 g ha^-1, non-treated 106 mm", "result": 68, "unit": "mm"}, {"measurement": "Annual bluegrass control RP7", "setting": "[3]; RP7, 28 days after treatment, minimum of two tillers, foramsulfuron 29, sulfometuron 105 g ha^−1", "result": 5, "unit": "%"}, {"measurement": "Annual bluegrass height RP7", "setting": "[3]; RP7, plant height 28 days after treatment, foramsulfuron 29, sulfometuron 105 g ha^-1, non-treated 125 mm", "result": 75, "unit": "mm"}, {"measurement": "Annual bluegrass control RP8", "setting": "[3]; RP8, 28 days after treatment, minimum of two tillers, foramsulfuron 29, sulfometuron 105 g ha^−1", "result": 3, "unit": "%"}, {"measurement": "Annual bluegrass height RP8", "setting": "[3]; RP8, plant height 28 days after treatment, foramsulfuron 29, sulfometuron 105 g ha^-1, non-treated 132 mm", "result": 94, "unit": "mm"}, {"measurement": "Annual bluegrass control S", "setting": "[3]; susceptible (S), 28 days after treatment, minimum of two tillers, foramsulfuron 29, sulfometuron 105 g ha^−1", "result": 93, "unit": "%"}, {"measurement": "Annual bluegrass height S", "setting": "[3]; susceptible (S), plant height 28 days after treatment, foramsulfuron 29, sulfometuron 105 g ha^-1, non-treated 111 mm", "result": 18, "unit": "mm"}, {"measurement": "Resistance factor A205V", "setting": "[4]", "result": 12}, {"measurement": "Resistance factor W574L", "setting": "[5]", "result": 2013}, {"measurement": "Resistance factor A205F", "setting": "[6]", "result": 5160}]}]}
